# Measurements reported in ChEMBL document CHEMBL5131475, “Metallo-β-lactamases inhibitor fisetin attenuates meropenem resistance in NDM-1-producing Escherichia coli” (Eur J Med Chem, 2022).
# Calls of active or inactive are those of the source. The rule behind the calls is not given here.
# Tests used:
# [1] = Inhibition of metallo-beta-lactamase VIM-1 (unknown origin) using nitrocefin as substrate preincubated for 15 min followed by substrate addition and measured after 15 min by microplate reader assay; design: species or system Bacteria
# Escherichia coli [2] = assay: Synergistic antibacterial activity against pET28a NDM-1 positive Escherichia coli BL21(DE3) isolates assessed as fractional Inhibitory concentration index incubated for 18 to 24 hrs in presence of spectinomycin by CLSI based broth microdilution method; assay type: functional; conditions: time 18-24 hrs
# Escherichia coli [3] = assay: Synergistic antibacterial activity against NDM-1 positive Escherichia coli ZC-YN3 isolates assessed as fractional Inhibitory concentration index incubated for 18 to 24 hrs in presence of doxycycline by CLSI based broth microdilution method; assay type: functional; conditions: time 18-24 hrs
# Escherichia coli [4] = assay: Antibacterial activity against pET28a-NDM-1 positive Escherichia coli BL21(DE3) isolates assessed as imipenem MIC incubated for 18 to 24 hrs by CLSI based broth microdilution method; assay type: functional; conditions: time 18-24 hrs
# Escherichia coli [5] = assay: Synergistic antibacterial activity against pET28a NDM-1 positive Escherichia coli BL21(DE3) isolates assessed as fractional Inhibitory concentration index incubated for 18 to 24 hrs in presence of kanamycin by CLSI based broth microdilution method; assay type: functional; conditions: time 18-24 hrs
# Escherichia coli [6] = assay: Synergistic antibacterial activity against pET28a NDM-1 positive Escherichia coli BL21(DE3) isolates assessed as fractional Inhibitory concentration index incubated for 18 to 24 hrs in presence of ampicillin by CLSI based broth microdilution method; assay type: functional; conditions: time 18-24 hrs
# Escherichia coli [7] = assay: Antibacterial activity against pET28a-NDM-1 positive Escherichia coli BL21(DE3) isolates assessed as florfenicol MIC incubated for 18 to 24 hrs by CLSI based broth microdilution method; assay type: functional; conditions: time 18-24 hrs
# Escherichia coli [8] = assay: Antibacterial activity against pET28a-NDM-1 positive Escherichia coli BL21(DE3) isolates assessed as doxycycline MIC incubated for 18 to 24 hrs by CLSI based broth microdilution method; assay type: functional; conditions: time 18-24 hrs
# Escherichia coli [9] = assay: Antibacterial activity against NDM-1 positive MCR1 carrying Escherichia coli ZJ487 isolates assessed as meropenem MIC incubated for 18 to 24 hrs by CLSI based broth microdilution method; assay type: functional; conditions: time 18-24 hrs
# Escherichia coli [10] = assay: Synergistic antibacterial activity against NDM-1 positive Escherichia coli ZC-YN3 isolates assessed as fractional Inhibitory concentration index incubated for 18 to 24 hrs in presence of vancomycin by CLSI based broth microdilution method; assay type: functional; conditions: time 18-24 hrs
# Escherichia coli [11] = assay: Synergistic antibacterial activity against pET28a NDM-1 positive Escherichia coli BL21(DE3) isolates assessed as fractional Inhibitory concentration index incubated for 18 to 24 hrs in presence of meropenem by CLSI based broth microdilution method; assay type: functional; conditions: time 18-24 hrs
# Escherichia coli [12] = assay: Synergistic antibacterial activity against NDM-1 positive Escherichia coli ZC-YN3 isolates assessed as fractional Inhibitory concentration index incubated for 18 to 24 hrs in presence of cefotaxime by CLSI based broth microdilution method; assay type: functional; conditions: time 18-24 hrs
# Escherichia coli [13] = assay: Antibacterial activity against NDM-1 positive Escherichia coli ZC-YN3 isolates assessed as meropenem MIC incubated for 18 to 24 hrs by CLSI based broth microdilution method; assay type: functional; conditions: time 18-24 hrs
# Escherichia coli [14] = assay: Antibacterial activity against pET28a-NDM-1 positive Escherichia coli BL21(DE3) isolates assessed as cefotaxime MIC incubated for 18 to 24 hrs by CLSI based broth microdilution method; assay type: functional; conditions: time 18-24 hrs
# Escherichia coli [15] = assay: Synergistic antibacterial activity against NDM-1 positive Escherichia coli ZC-YN3 isolates assessed as fractional Inhibitory concentration index incubated for 18 to 24 hrs in presence of florfenicol by CLSI based broth microdilution method; assay type: functional; conditions: time 18-24 hrs
# Bacteria [16] = assay: Inhibition of NDM-1 activity (unknown origin) in presence of zinc ion
# Escherichia coli [17] = assay: Antibacterial activity against pET28a-NDM-1 positive Escherichia coli BL21(DE3) isolates assessed as vancomycin MIC incubated for 18 to 24 hrs by CLSI based broth microdilution method; assay type: functional; conditions: time 18-24 hrs
# [18] = Inhibition of class A […]beta-lactamase KPC-2 (unknown origin) using nitrocefin as substrate preincubated for 15 min followed by substrate addition and measured after 15 min by microplate reader assay; design: species or system Bacteria
# Bacteria [19] = assay: Inhibition of NDM-1 H250A mutant activity (unknown origin) in presence of zinc ion
# Escherichia coli [20] = assay: Antibacterial activity against NDM-1 positive Escherichia coli ZC-YN3 isolates assessed as lincomycin MIC incubated for 18 to 24 hrs by CLSI based broth microdilution method; assay type: functional; conditions: time 18-24 hrs
# Escherichia coli [21] = assay: Antibacterial activity against NDM-1 positive Escherichia coli ZC-YN3 isolates assessed as doxycycline MIC incubated for 18 to 24 hrs by CLSI based broth microdilution method; assay type: functional; conditions: time 18-24 hrs
# [22] = Inhibition of metallo-beta-lactamase NDM-1 (unknown origin) using nitrocefin as substrate preincubated for 15 min followed by substrate addition and measured after 15 min by microplate reader assay; design: species or system Bacteria
# Bacteria [23] = assay: Binding affinity to NDM-1 H250A mutant (unknown origin) assessed as binding free energy by fluorescence quenching method
# Escherichia coli [24] = assay: Antibacterial activity against NDM-1 positive Escherichia coli ZC-YN3 isolates assessed as colistin MIC incubated for 18 to 24 hrs by CLSI based broth microdilution method; assay type: functional; conditions: time 18-24 hrs
# Escherichia coli [25] = assay: Synergistic antibacterial activity against NDM-1 negative Escherichia coli BL21(DE3) (pET28a) isolates assessed as fractional Inhibitory concentration index incubated for 18 to 24 hrs in presence of meropenem by CLSI based broth microdilution method; assay type: functional; conditions: time 18-24 hrs
# Escherichia coli [26] = assay: Antibacterial activity against NDM-1 positive Escherichia coli ZC-YN3 isolates assessed as ampicillin MIC incubated for 18 to 24 hrs by CLSI based broth microdilution method; assay type: functional; conditions: time 18-24 hrs
# Escherichia coli [27] = assay: Antibacterial activity against NDM-1 positive Escherichia coli ZC-YN3 isolates assessed as florfenicol MIC incubated for 18 to 24 hrs by CLSI based broth microdilution method; assay type: functional; conditions: time 18-24 hrs
# Escherichia coli [28] = assay: Antibacterial activity against NDM-1 positive Escherichia coli ZC-YN3 isolates assessed as rifampicin MIC incubated for 18 to 24 hrs by CLSI based broth microdilution method; assay type: functional; conditions: time 18-24 hrs
# Bacteria [29] = tested on: Bacteria
# Description: Binding affinity to NDM-1 H250A mutant (unknown origin) assessed as binding constant by fluorescence quenching method
# Escherichia coli [30] = assay: Synergistic antibacterial activity against pET28a NDM-1 positive Escherichia coli BL21(DE3) isolates assessed as fractional Inhibitory concentration index incubated for 18 to 24 hrs in presence of cefotaxime by CLSI based broth microdilution method; assay type: functional; conditions: time 18-24 hrs
# Bacteria [31] = tested on: Bacteria; remark: listed apart in the source
# Description: Binding affinity to NDM-1 (unknown origin) assessed as binding constant by fluorescence quenching method
# Escherichia coli [32] = assay: Synergistic antibacterial activity against NDM-1 positive Escherichia coli ZC-YN3 isolates assessed as fractional Inhibitory concentration index incubated for 18 to 24 hrs in presence of ciprofloxacin by CLSI based broth microdilution method; assay type: functional; conditions: time 18-24 hrs
# Bacteria [33] = assay: Binding affinity to NDM-1 V73A mutant (unknown origin) assessed as binding free energy by fluorescence quenching method
# Escherichia coli [34] = assay: Synergistic antibacterial activity against pET28a NDM-1 positive Escherichia coli BL21(DE3) isolates assessed as fractional Inhibitory concentration index incubated for 18 to 24 hrs in presence of imipenem by CLSI based broth microdilution method; assay type: functional; conditions: time 18-24 hrs
# Escherichia coli [35] = assay: Antibacterial activity against pET28a-NDM-1 positive Escherichia coli BL21(DE3) isolates assessed as lincomycin MIC incubated for 18 to 24 hrs by CLSI based broth microdilution method; assay type: functional; conditions: time 18-24 hrs
# Escherichia coli [36] = assay: Synergistic antibacterial activity against NDM-1 positive Escherichia coli ZC-YN3 isolates assessed as fractional Inhibitory concentration index incubated for 18 to 24 hrs in presence of kanamycin by CLSI based broth microdilution method; assay type: functional; conditions: time 18-24 hrs
compound,measurement,setting,value
O=c1c(O)c(-c2ccc(O)c(O)c2)oc2cc(O)ccc12 [FISETIN],IC50,[1],11.37 µg/mL
same,fractional inhibitory concentration index (FICI),Escherichia coli [2],0.96
same,fractional inhibitory concentration index (FICI),Escherichia coli [3],0.96
same,MIC,Escherichia coli [4],9.33 µg/mL
same,fractional inhibitory concentration index (FICI),Escherichia coli [5],1.13
same,fractional inhibitory concentration index (FICI),Escherichia coli [6],0.96
same,MIC,Escherichia coli [7],683 µg/mL
same,MIC,Escherichia coli [8],107 µg/mL
same,MIC,Escherichia coli [9],5.33 µg/mL
same,fractional inhibitory concentration index (FICI),Escherichia coli [10],0.96
same,fractional inhibitory concentration index (FICI),Escherichia coli [11],0.25
same,fractional inhibitory concentration index (FICI),Escherichia coli [12],1.13
same,MIC,Escherichia coli [13],4 µg/mL
same,MIC,Escherichia coli [14],512 µg/mL
same,fractional inhibitory concentration index (FICI),Escherichia coli [15],0.96
same,inhibition,Bacteria [16],Active
same,MIC,Escherichia coli [17],683 µg/mL
same,IC50,[18],2.63 µg/mL
same,inhibition,Bacteria [19],Active
same,MIC,Escherichia coli [20],1020 µg/mL
same,MIC,Escherichia coli [21],53.3 µg/mL
same,IC50,[22],9.66 µg/mL
same,Activity,Bacteria [23],-12.4 kcal/mol
same,MIC,Escherichia coli [24],1.33 µg/mL
same,fractional inhibitory concentration index (FICI),Escherichia coli [25],1.13
same,MIC,Escherichia coli [26],853 µg/mL
same,MIC,Escherichia coli [27],341 µg/mL
same,MIC,Escherichia coli [28],10.7 µg/mL
same,Ka,Bacteria [29],6.95 10^5L/mol
same,fractional inhibitory concentration index (FICI),Escherichia coli [30],1.13
same,Ka,Bacteria [31],12.2 10^5L/mol
same,fractional inhibitory concentration index (FICI),Escherichia coli [32],1.13
same,Activity,Bacteria [33],-18.7 kcal/mol
same,fractional inhibitory concentration index (FICI),Escherichia coli [34],0.46
same,MIC,Escherichia coli [35],853 µg/mL
same,fractional inhibitory concentration index (FICI),Escherichia coli [36],1.13
